The target in the assay is T1, AfPolX1 (Aspergillus fumigatus, UniProt Q4X1T5).
T1 construct: gene AFUA_2G08840; catalytic core (8 kDa, fingers, palm, thumb), residues 297-704 in methods, 298-704 in results; codon-optimised in pET28a(+), E. coli Rosetta 2 (DE3); N-terminal His6 tag cut off with TEV protease
T1 sequence (Q4X1T5 297-704): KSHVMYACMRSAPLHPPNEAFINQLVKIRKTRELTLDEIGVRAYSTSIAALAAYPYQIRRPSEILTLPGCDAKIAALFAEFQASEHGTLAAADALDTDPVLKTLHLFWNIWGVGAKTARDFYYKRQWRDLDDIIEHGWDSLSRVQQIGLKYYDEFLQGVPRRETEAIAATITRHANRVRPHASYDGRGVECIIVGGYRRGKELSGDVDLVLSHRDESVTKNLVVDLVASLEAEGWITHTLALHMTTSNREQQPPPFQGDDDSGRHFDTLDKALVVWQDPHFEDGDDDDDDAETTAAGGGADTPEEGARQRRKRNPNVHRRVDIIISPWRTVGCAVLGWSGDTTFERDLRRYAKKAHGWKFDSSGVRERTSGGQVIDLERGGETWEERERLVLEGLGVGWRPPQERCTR
In words: single-turnover gap-filling primer extension, denaturing gel. The following applies: 1-nt gapped 5'-phosphate DNA (D1) templating dT, 150 nM; 4 uM enzyme; 1 mM dATP; 10 mM Mg acetate; pH 7.5; 37 °C. Format: biochemical.

On to `Nc1ncnc2c1ncn2[C@H]1C[C@H](O)[C@@H](COP(=O)(O)OP(=O)(O)OP(=O)(O)O)O1` [dATP], for which the kobs entry is reported as “Correct nucleotide incorporation proceeded at comparable rates for all the substrates”.

For the origin of these results see article PMC12828229, “Aspergillus fumigatus PolX1 is an early ancestor of vertebrate terminal deoxynucleotidyl transferases” (Nucleic Acids Research, 2026).
